The source of these data is PMC12702354, “Engineered an ultrasmall curcumin oral nanoformulation restores intestinal integrity and gut microbiota dysbiosis” (Materials Today Bio, 2025).

A short description of data set [1]: Distribution of DiR-loaded UsNFs in the GIT. The class given is in vivo, C57BL/6J mice. Particulars: oral, 2 mg/kg DiR. Here is the method:
34 Distribution of UsNFs in the GIT.
37 of 2 mg/kg DiR. […] The stomachs and
41 FITC-dextran permeability assay .
Blood samples were collected at
44 shielded from light exposure. […] Standards (0.1–
48 subtraction and subjected to statistical analysis.
The mice were divided into three groups
61 sterilized drinking water.

Data set [2] has as its system faecal metabolites of gut bacteria. The data set is described as follows: Faecal metabolome analysis (GC-MS) in VAN-induced mice. Type of data set: in vivo, C57BL/6 mice. Here is the method: The extract of faecal samples (40 mg/ml methanol) was prepared as described in the previous method. The obtained dry extract was derivatized with methoxyamine-HCl and BSTFA (Sigma-Aldrich, USA), followed by incubation for 1 h at 37 °C. Subsequently, the supernatant (10 μl) obtained after centrifugation at 10,000×g for 12 min was injected into an Agilent GC-MS. The injector, transfer line, and ion source were set at 280 °C, 150 °C and 230 °C, respectively. At the beginning, we set the oven temperature to 60 °C, and then increased at 60 °C/min for 2 min, followed by an increase at the rate of 10 °C/min until reaching 300 °C.

The test system of data set [3] is VAN-induced C57BL/6J mouse model. The experiment in a line: VAN-induced intestinal epithelial barrier dysfunction and gut inflammation model.
Procedure: This was succeeded by a daily oral administration of 50 mg/kg UsNFs of CUR for another 10 days, whereas the control group (CON) received standard rodent feed and water (Fig. 5A).

Turning to `CCCCCCCCCCCCCCCCCCN1C(=CC=CC=CC=CC2=[N+](CCCCCCCCCCCCCCCCCC)c3ccccc3C2(C)C)C(C)(C)c2ccccc21` [Free DiR, 1,1′-dioctadecyl-3,3,3′,3′-tetramethylindotricarbocyanine], in data set [1], the “Residence in the GIT (NIR signal of DiR)” value is reported as “quick removal via feces”.

With `CN[C@H](CC(C)C)C(=O)N[C@H]1C(=O)N[C@@H](CC(N)=O)C(=O)N[C@H]2C(=O)N[C@H]3C(=O)N[C@H](C(=O)N[C@H](C(=O)O)c4cc(O)cc(O)c4-c4cc3ccc4O)[C@H](O)c3ccc(c(Cl)c3)Oc3cc2cc(c3O[C@@H]2O[C@H](CO)[C@@H](O)[C@H](O)[C@H]2O[C@H]2C[C@](C)(N)[C@H](O)[C@H](C)O2)Oc2ccc(cc2Cl)[C@H]1O` [VAN, vancomycin], the “Content of butyrate in faeces” value in data set [2] (VAN-induced group (CON 1.1 %)) turned out to be 0.14%. For the same compound, the “Content of propionate in faeces” value in data set [2] (VAN-induced group (CON 1.3 %)) is on record as 0.16%. Moreover, the “Content of acetate in faeces” value in data set [2] (VAN-induced group (CON 1.52 %)) is recorded as 0.16%. For the same compound, the “Content of azelaic acid in faeces” value in data set [2] (VAN-induced group (CON 2.2 %)) came out at 0.34%. The “Content of 9,12,15-octadecatrienoic acid in faeces” value in data set [2] (VAN-induced group (CON 3.11 %)) is on record as 0.8%. In addition, the “Content of 4-aminovaleric acid in faeces” value in data set [2] (VAN-induced group (CON 12.7 %)) came to 1.4%. In addition, the “Content of hexanoic acid in faeces” value in data set [2] (VAN-induced group, printed from 23.7 % to 0.81 %) is 0.81%. For the same compound, in data set [3] (VAN 20 mg/ml in drinking water, 10 days), the “Colon length increase over control group” value is 21.9%. Besides, the MDA level increase entry in data set [3] (VAN-induced group) is “around 2.5 times”.
